The Bradley open melting point set (2014)
Several values for one entry are separate records, joined by “and”; a condition that tells them apart may be missing. Equal entries are not always repeated.

Point of comparison: CC(=O)c1ccccc1[N+](=O)[O-] [o-nitroacetophenone], melting point 30 °C. Against it:
- Cc1cc(/C=C2\SC(=Nc3ccccc3)N=C2O)c(C)n1-c1ccc(F)cc1 [OSM-S-10] — higher, 278 °C
- CCCCCCCCCCCCCCCCCCCC [N-eicosane] — higher, 37 °C
- CC(C)(C)I [2-iodo-2-methylpropane] — lower, -38 °C
- O=C(c1ccncc1)c1ccc(Cl)cc1 [4-(4-chlorobenzoyl)pyridine] — higher, 108 °C
- N#Cc1cc(-c2ccccc2)cnc1Cl [2-chloro-3-cyano-5-phenylpyridine] — higher, 145 °C
- CCCCOCC [1-Ethoxybutane] — lower, -103 °C
- CC(=O)c1ccccc1C#N [o-acetyl_benzonitrile] — higher, 48 °C
- CCCCCCCCCl [1-chlorooctane] — lower, -58 °C
- Nc1ccc(I)cc1 [p-iodoaniline] — higher, 63 °C
- CCOC(=O)C1=C(C)C(C(=O)OCC)N=C1C (stereo not drawn) [2,4-Dimethyl-3,5-dicarbethoxypyrrole] — higher, 137 °C
- C1=CC2=CC=C3C=CC=CC4=C3CC2=C(C=C1)C=C4 [6H-5,7-ethenocyclohepta[b]heptalene] — higher, 130 °C
- OC1CCCCC1 [cyclohexanol] — lower, 24 °C
- CC1(C)CC(=O)C(=NNc2ccccc2[N+](=O)[O-])C(=O)C1 — higher, 140 °C
- OCc1cccc(Oc2ccccc2)c1 [(3-Phenoxyphenyl)methanol] — lower, 10 °C
- O=[N+]([O-])c1ccc(F)cc1F [2,4-difluoro-1-nitrobenzene] — lower, 10 °C
- Cc1ccc(B(O)O)cc1F [3-fluoro-4-methylbenzeneboronic acid] — higher, 234 °C
- O=C1C=CC(=O)C=C1 [p-benzoquinone] — higher, 114 °C
- On1nnc2ccccc21 [1H-Benzotriazol-1-ol] — higher, 159 °C
- CC(C)(C)c1ccc(Br)cc1 [1-bromo-4-tert-butylbenzene] — lower, 16 °C
- CCCN(CCC)C(=O)Cc1c(-c2ccc(Cl)cc2)nc2ccc(Cl)cn12 [alpidem] — higher, 140 °C
- CC(=O)OC1CCC2C3CCC4=CC(=O)CCC4(C)C3CCC12C (stereo not drawn) [3-oxoandrost-4-en-17-yl acetate] — higher, 140 °C
- Brc1cc(Br)cc(Br)c1 [1,3,5-Tribromobenzene] — higher, 122 °C
- O=C(Cl)N(c1ccccc1)c1ccccc1 [diphenylcarbamyl chloride] — higher, 84 °C
- CC(=O)OO [Ethaneperoxoic acid] — lower, 0.1 °C
- COC(=O)CCCCC(=O)OC [Dimethyl adipate] — lower, 8 °C
- CCNCC [diethylamine] — lower, -50 °C
- COc1ccc(B(O)O)c(Cl)c1 [2-chloro-4-methoxybenzeneboronic acid] — higher, 202 °C
- C=CCCCCCCCCCCCCCCCCCC [1-eicosene] — lower, 29 °C
- CCOC(=O)c1ccc(OC)cc1 [ethyl 4-methoxybenzoate] — lower, 8 °C
- CCOC(=O)c1ccccc1N [ethyl_2-aminobenzoate] — lower, 14 °C
- O=C(O)CI [iodoacetic acid] — higher, 81 °C
- FC(F)(F)c1ccc(Cl)c(Cl)c1 [3,4-dichlorobenzotrifluoride] — lower, -12 °C
- CCC(C)S (stereo not drawn) [2-butanethiol] — lower, -140 °C
- O=C1CCCCCCC1 [cyclooctanone] — higher, 41 °C
- Oc1ccc(/C=C/c2cc(O)cc(O)c2)cc1 [resveratrol] — higher, 254 °C
- O=C(O)CCCCCCC(=O)O [suberic acid] — higher, 143 °C
- Cc1ccc([N+](=O)[O-])cc1C [1,2-Dimethyl-4-nitrobenzene] — higher, 30.5 °C
- COc1ccc(C(C)C)cc1B(O)O [5-isopropyl-2-methoxybenzeneboronic acid] — higher, 86 °C
- NC(=O)C(Cl)(Cl)Cl [2,2,2-Trichloroacetamide] — higher, 142 °C
- Cc1ccc(C)c(/C=C/c2ccc(-c3ccc(/C=C/c4cc(C)ccc4C)cc3)cc2)c1 [4,4'-bis(2,5-dimethylstyryl)biphenyl] — higher, 198 °C
- O=[N+]([O-])c1cc[n+]([O-])c(Cl)c1 [2-chloro-4-nitropyridine n-oxide] — higher, 154 °C
- O=C(O)c1ccccc1Br [2-Bromobenzoic acid] — higher, 149 °C
- OC1c2ccccc2Oc2ccccc21 [xanthydrol] — higher, 124 °C
- NC(=O)c1ccccc1OC(F)(F)F [2-(trifluoromethoxy)benzamide] — higher, 154 °C
- CCOC(=O)c1ccccc1C(=O)OCC [diethyl phthalate] — lower, -64 °C
- Cc1ccc(C(=O)/C=C/c2ccc(-c3ccccc3)o2)o1 — higher, 123 °C
- C(=Cc1ccccc1)Cc1ccccc1 [benzene, 1,1'-(1-propene-1,3-diyl)bis-] — higher, 155 °C
- O=C=NCCCCCCN=C=O [1,6-Diisocyanatohexane] — lower, -55 °C
- [C-]#[N+]C1CCCCC1 [Cyclohexyl isocyanide] — lower, 6 °C
- CC(C)c1ccc(B(O)O)cc1 [4-isopropylbenzeneboronic acid] — higher, 143 °C
- CCNCC [N-Ethylethanamine] — lower, -50 °C
- O=C(O)c1cccc2ccccc12 [1-naphthoic acid] — higher, 161 °C
- C#CCON1C(=O)c2ccccc2C1=O [N-propargyloxyphthalimide] — higher, 151 °C
- Cc1cccc(C(C)(C)C)c1 [1-methyl-3-tert-butylbenzene] — lower, -41 °C
- O=C(O)C(F)(F)F [trifluoroacetic acid] — lower, -15 °C
- COc1ccc(C(=O)O)cc1 [P-Anisic Acid] — higher, 185 °C
- O=C(O)COc1ccc(F)cc1 [4-fluorophenoxyacetic acid] — higher, 105 °C
- OB(O)c1ccc(-c2ccccc2)cc1 [biphenyl-4-boronic acid] — higher, 243 °C
- CC1(C)C(O)[C@H](Cl)[C@@H]2CC[C@H]1O2 (stereo partly drawn) — higher, 72 °C
- c1ccc(-c2nc3ccccc3[nH]2)cc1 [2-phenylbenzimidazole] — higher, 297 °C
- CN(C)CCOc1ccc(/C(=C(\CCCl)c2ccccc2)c2ccccc2)cc1 — higher, 108 °C
- CC(C)(C)c1cc(C(=S)NC2CCCCC2)cc(C(C)(C)C)c1O [3,5-Di-tert-butyl-N-cyclohexyl-4-hydroxy-thiobenzamide] — higher, 228 °C
- O=c1ccn([C@@H]2C[C@H](O)[C@@H](CO)O2)c(=O)[nH]1 [2'-Deoxyuridine] — higher, 163 °C
- CCCCCCCCC [N-nonane] — lower, -53 °C
- N#CCc1ccccc1[N+](=O)[O-] [o-nitrophenylacetonitrile] — higher, 84 °C
- O(c1ccccc1OC\C=C)CC(O)CNC(C)C (stereo not drawn) [oxprenolol] — higher, 112 °C
- Cc1ccc(O)c(C)c1 [2,4-dimethylphenol] — lower, 27 °C
- CCC(Br)(CC)C(=O)NC(=O)NC(C)=O [acecarbromal] — higher, 109 °C
- Fc1cccc2ccccc12 [1-fluoronaphthalene] — lower, -10 °C
- Cc1cccc(C)c1NC(=O)CN1CCN(CCCC(c2ccc(F)cc2)c2ccc(F)cc2)CC1 [lidoflazine] — higher, 159 °C
- NC(=O)c1c(-c2ccccc2)nn(-c2ccccc2)c1N [5-amino-1,3-diphenyl-1H-pyrazole-4-carboxamide] — higher, 200 °C
- O=C(O)c1cc(C(=O)O)c(C(=O)O)cc1C(=O)O [pyromellitic acid] — higher, 283 °C
- O=C1CSC(=S)N1c1ccccc1 [4-thiazolidinone, 3-phenyl-2-thioxo-] — higher, 240 °C
- COCC(=O)N(c1c(C)cccc1C)C(C)C(=O)OC (stereo not drawn) [metalaxyl] — higher, 72 °C
- CCCCC(C)=O [2-hexanone] — lower, -56 °C
- CC(C)CCC[C@@H](C)[C@H]1CC[C@H]2[C@@H]3CC[C@H]4CC(=O)CC[C@]4(C)[C@H]3CC[C@]12C [5alpha-cholestan-3-one] — higher, 130 °C
- OCCCCO [Butane-1,4-diol] — lower, 18 °C
- COc1ccc(/C=C/C=O)cc1 [trans-4-methoxycinnamaldehyde] — higher, 58 °C
- O=c1c2ccccc2sc2ccccc12 [Thioxanthen-9-one] — higher, 211 °C
- CCCCCCCC [N-octane] — lower, -57 °C
- O=C(O)c1ccc(I)cc1 [p-iodobenzoic_acid] — higher, 273 °C
- O=C(O)c1ccccc1Cl [2-chlorobenzoic acid] — higher, 140 °C
- O=C1CCC(N2C(=O)c3ccccc3C2=O)C(=O)N1 (stereo not drawn) [thalidomide] — higher, 270 °C
- Cc1ccc(O)cc1 [p-cresol] — higher, 33 °C
- CC(=O)Nc1nccs1 [2-acetamidothiazole] — higher, 203 °C
- O=[N+]([O-])c1cccc(Cl)c1Cl [1,2-dichloro-3-nitrobenzene] — higher, 62 °C
- OCC12CC3CC(CC(C3)C1)C2 [1-adamantanemethanol] — higher, 117 °C
- O=[N+]([O-])c1ccc(Cl)c(Cl)c1 [3,4-Dichloronitrobenzene] — higher, 41.3 °C
- ClC1=C(Cl)C2(Cl)C3C4CC(C5OC45)C3C1(Cl)C2(Cl)Cl (stereo not drawn) [Endrin] — higher, 210 °C
- C#CC1(O)CCC2C3CCc4cc(O)ccc4C3CCC21C (stereo not drawn) [ethinylestradiol] — higher, 141 °C
- CSCC[C@H](NC(C)=O)C(=O)O [N-Acetylmethionine] — higher, 106 °C
- O=C1SCCN1C(=O)c1ccccc1 [3-Benzoyl-1,3-thiazolidin-2-one] — higher, 121 °C
- O=C1C=C(Cl)C(=O)C=C1Cl [2,5-Dichloro-1,4-benzoquinone] — higher, 162 °C
- Cc1cccc(Nc2ccccc2C(=O)O)c1C [Mefenamic acid] — higher, 230 °C
- CC1(C)C(=O)OC2=C(CC3C4CC=C5CC(O)CCC5(C)C4CCC23C)C1c1ccccc1 (stereo not drawn) — higher, 233 °C
- CC1C(=O)CCCC1=O [2-methylcyclohexane-1,3-dione] — higher, 206 °C
- ClC1=C(Cl)C2(Cl)C3C4CC(C5OC45)C3C1(Cl)C2(Cl)Cl (stereo not drawn) [Dieldrin] — higher, 175 °C
- O=C(O)C1=NN(c2ccccc2)C(=O)C1=CC1C(=O)N(c2ccccc2)N=C1C(=O)O (stereo not drawn) — higher, 259 °C

For c1cc2cccc3c4cccc5cccc(c(c1)c23)c54 [perylene], the melting point was 277 °C and 278 °C (2×).
In the case of CN(C)c1ccc(/C=N/c2ccccc2)cc1 [N-(4-Dimethylaminobenzylidene)aniline], the melting point is reported as 99 °C and 100 °C.
With Br [Hydrogen bromide] the melting point was -87 °C and -86 °C.
With O=C(O)Cc1ccccc1 [phenylacetic acid] the melting point was 77.5 °C and 76.7 °C and 77 °C.
